Data taken from US20220265817A1, “THERAPEUTIC COMPOSITIONS AND METHODS FOR TREATING HEPATITIS B” (priority 2017, published 2022).
Where two headings read alike, the source gives them in different places. [UNA] = unlocked nucleic acid; m = 2'-O-methyl; r = 2'-OH (RNA)

Columns and labels:
[1] = tested on: HBV genome; experiment: siRNA IC50 (Table A); design: species or system Hepatitis B virus
[2] = tested on: HBV rcDNA in HepDE19 cells; experiment: HepDE19 cell culture system, rcDNA quantitation using bDNA assay, MacSynergy II; type: cell-based, human hepatoma cell line; conditions: for AVERAGE % INHIBITION: COMPOUND 3 0.000 μM
Description: In vitro combination studies were conducted using the method of Prichard and Shipman (Prichard M N, and Shipman C Jr., Antiviral Research, 1990, 14 (4-5), 181-205; and Prichard M N, et. al., MacSynergy II). HepDE19 cell culture system is a HepG2 (human hepatocarcinoma) derived cell line that supports HBV DNA replication and cccDNA formation in a tetracycline (Tet)-regulated manner and produces HBV rcDNA and a detectable reporter molecule dependent on the production and maintenance of cccDNA (Guo et al 2007. J. Virol 81:12472-12484). HepDE19 (50,000 cells/well) were plated in 96 well collagen-coated tissue-culture treated microtiter plates in DMEM/F12 medium supplemented with 10% fetal bovine serum, 1% penicillin-streptomycin and 1 μg/ml tetracycline and incubated in a humidified incubator at 37° C. and 5% CO2 overnight. Next day, the cells were switched to fresh medium without tetracycline and incubated for 4 hrs at 37° C. and 5% CO2. […] The two inhibitors were tested both singly as well as in combinations in a checkerboard fashion such that each concentration of inhibitor A was combined with each concentration of inhibitor B to determine their combination effects on inhibition of rcDNA production. Following a 7 day-incubation of cells with compound combinations, the level of rcDNA present in the inhibitor-treated wells was measured using a Quantigene 2.0 bDNA assay kit (Affymetrix, Santa Clara, Calif.) with HBV specific custom probe set and manufacturers instructions. […] The RLU data from the single compound treated cells were analyzed using XL-Fit module in Microsoft Excel to determine EC50 values using a 4-parameter curve fitting algorithm. Concurrently, the effect of compounds on cell viability was assessed using replicate plates, plated at a density of 5,000 cells/well and incubated for 4 days, to determine the ATP content as a measure of cell viability using the cell-titer glo reagent (CTG; Promega Corporation, Madison, Wis.) as per manufacturer's instructions.
In vitro combination studies were conducted using the method of Prichard and Shipman (Prichard M N, Shipman C, Jr., Antiviral Res, 14, 181-205 (1990)). The HepDE19 cell line was developed as described in Guo et al. (Guo et al., J Virol, 81, 12472-12484 (2007)). It is a human hepatoma cell line stably transfected with the HBV genome, and which can express HBV pregenomic RNA and support HBV rcDNA (relaxed circular DNA) synthesis in a tetracycline-regulated manner. HepDE19 cells were plated in 96 well tissue-culture treated microtiter plates in DMEM/F12 medium supplemented with 10% fetal bovine serum+1% penicillin-streptomycin without tetracycline and incubated in a humidified incubator at 37° C. and 5% CO2 overnight. […] The two inhibitors were tested both singly as well as in combinations in a checkerboard fashion such that each concentration of inhibitor A was combined with each concentration of inhibitor B to determine their combination effects on inhibition of rcDNA production. Following a 48 hour-incubation, the level of rcDNA present in the inhibitor-treated wells was measured using a bDNA assay (Affymetrix) with HBV specific custom probe set and manufacturers instructions. […] Concurrently, the effect of inhibitor combinations on cell viability was assessed using replicate plates that were used to determine the ATP content as a measure of cell viability using the Cell-TiterGlo reagent (Promega) as per manufacturer's instructions.
In vitro combination studies were conducted using the method of Prichard and Shipman (1990) (Prichard M N, Shipman C, Jr. 1990. A three-dimensional model to analyze drug-drug interactions. Antiviral Res 14:181-205 AND Prichard M N. 1992. MacSynergy II, University of Michigan).

[3] = tested on: D type HBV in primary human hepatocytes (HBsAg); experiment: microbe, parasite or virus in culture; type: cell-based; conditions: for AVERAGE % INHIBITION: COMPOUND 22 0 nM
Description: (§1) The mouse liver perfusion was applied to isolate PHHs. The isolated hepatocytes were further purified by Percoll. The cells were resuspended with culture media and seeded into the 96-well plates (6×10^4 cell/well) or 48-well plates (1.2×10^5 cell/well). The PHHs were infected with a D type HBV one day post seeding (day 1).
(§2) On day 2, the test compounds were diluted and added into the cell culture plates. The culture media containing the compounds were refreshed every other day. The cell culture supernatants were collected on day 8 for the HBV DNA and antigen determinations.
(§3) The compounds were tested at 7 concentrations, 3-fold dilution, in triplicate.
(§4) Two compounds were tested at 5×5 matrix, in triplicate plates.
(§5) HBsAg/HBeAg in the culture supernatants harvested on days 8 were measured by the HBsAg/HBeAg ELISA kit (Autobio) according to the manual. The samples were diluted with PBS to get the signal in the range of the standard curve. The inhibition rates were calculated with the formula below. The combination effect was analyzed by the MacSynergy software.
% Inh. HBsAg=[1-HBsAg quantity of sample/HBV quantity of DMSO control]×100.

[4] = tested on: D type HBV in primary human hepatocytes; experiment: microbe, parasite or virus in culture; type: cell-based; conditions: for AVERAGE % INHIBITION: COMPOUND 22 0 nM
Description: as §1, §2, §3, §4
DNA in the culture supernatants harvested on days 8 were isolated with QIAamp 96 DNA Blood Kit (Qiagen-51161). For each sample, 100 μl of the culture supernatants was used to extract DNA. The DNA was eluted with 100 μl, 150 μl or 180 μl of AE. HBV DNA in the culture supernatants was quantified by qPCR. The combination effect was analyzed by the MacSynergy software. The primers are described below.

[5] = tested on: D type HBV in primary human hepatocytes (HBeAg); experiment: microbe, parasite or virus in culture; type: cell-based
Description: as §1, §2, §3, §4, §5
% Inh. HBeAg=[1-HBeAg quantity of sample/HBV quantity of DMSO control]×100.

[6] = Hepatitis B virus, HepDE19, read-out: AVERAGE % INHIBITION
[7] = Hepatitis B virus, Hepatocyte, read-out: AVERAGE % INHIBITION HBsAg
[8] = Hepatitis B virus, Hepatocyte, read-out: Inhibitor A EC50
[9] = Hepatitis B virus, Hepatocyte, read-out: Inhibitor EC50
[10] = Hepatitis B virus, Hepatocyte, read-out: AVERAGE % […] DNA

## 11m: siRNA duplex SEQ ID NO: 21 and 22 targeting the HBV genome (chain 1 GCCGAUCCAUACUGCGGAAUU; chain 2 UUCCGCAGUAUGGAUCGGCUU; chain 1: sugars from the 5' end [UNA]rrmrmrrrrrrmmrmmrrr[UNA], backbone not given here; chain 2: sugars from the 5' end rrrrrrrmrrrrmrrrrmrrr, backbone not given here) [Compound 11m]
[1]
  IC50: 0.31 nM

## 6m: siRNA duplex SEQ ID NO: 11 and 12 targeting the HBV genome (chain 1 CUGGCUCAGUUUACUAGUGUU; chain 2 CACUAGUAAACUGAGCCAGUU; chain 1: sugars from the 5' end [UNA]mmmrrrrrrrrrrmrmrrr[UNA], backbone not given here; chain 2: sugars from the 5' end rrrrrmrrrrrrmrmrrrrrr, backbone not given here) [Compound 6m]
[1]
  IC50: 0.05 nM

## CCOC(=O)C1=C(CN2CCOCC2)NC(c2nccs2)=NC1c1ccc(F)cc1Br (stereo not shown) [GLS4]
[2]; GLS-4 0.008 μM
  AVERAGE % INHIBITION: −1.17%
[2]; GLS-4 0.016 μM
  AVERAGE % INHIBITION: −5.82%
[2]; GLS-4 0.031 μM
  AVERAGE % INHIBITION: 7.03%
[2]; GLS-4 0.063 μM
  AVERAGE % INHIBITION: 38.95%
[2]; GLS-4 0.125 μM
  AVERAGE % INHIBITION: 77.82%
[2]; GLS-4 0.250 μM
  AVERAGE % INHIBITION: 94.65%
[2]; GLS-4 0.500 μM
  AVERAGE % INHIBITION: 97.48%
[2]; GLS-4 1.000 μM
  AVERAGE % INHIBITION: 98.51%
[2]; GLS-4 2.000 μM
  AVERAGE % INHIBITION: 98.22%
[2]; rcDNA, bDNA assay, DE19 cells, read-out: Inhibitor B EC50
  EC50: 77 nM

## 10m: siRNA duplex SEQ ID NO: 19 and 20 targeting the HBV genome (chain 1 GCCGAUCCAUACUGCGGAAUU; chain 2 UUCCGCAGUAUGGAUCGGCUU; chain 1: sugars from the 5' end [UNA]rrmrmrrrrrrmmrmmrr[UNA][UNA], backbone not given here; chain 2: sugars from the 5' end rrrrrrrmrrrrmrrrrmr[UNA][UNA], backbone not given here) [Compound 10m]
[1]
  IC50: 0.34 nM

## 4m: siRNA duplex SEQ ID NO: 7 and 8 targeting the HBV genome (chain 1 GCUCAGUUUACUAGUGCCAUU; chain 2 UGGCACUAGUAAACUGAGCUU; chain 1: sugars from the 5' end [UNA]rmmrmrrrrrrrrrrrmr[UNA][UNA], backbone not given here; chain 2: sugars from the 5' end rrrrrrrrrmrrrrrrrmr[UNA][UNA], backbone not given here) [Compound 4m]
[1]
  IC50: 0.31 nM

## 3m: siRNA duplex SEQ ID NO: 5 and 6 targeting the HBV genome (chain 1 CCGUGUGCACUUCGCUUCAUU; chain 2 UGAAGCGAAGUGCACACGGUU; chain 1: sugars from the 5' end [UNA]rrrmmrrrrrmrrrmmrr[UNA][UNA], backbone not given here; chain 2: sugars from the 5' end rrrrrrrrrrrmrrrrrmr[UNA][UNA], backbone not given here) [Compound 3m]
[1]
  IC50: 0.06 nM

## CC(C)OC(=O)[C@H](C)N[P@](=O)(CO[C@H](C)Cn1cnc2c(N)ncnc21)Oc1ccccc1 [TAF, tenofovir alafenamide, reference compound]
[2]; [6]
  inhibition at 0.000781 µM: -4.76%
  inhibition at 0.001563 µM: 3.49%
  inhibition at 0.003125 µM: 0.6%
  inhibition at 0.00625 µM: 10.6%
  inhibition at 0.0125 µM: 28.6%
  inhibition at 0.025 µM: 20%
  inhibition at 0.05 µM: 53.2%
  inhibition at 0.1 µM: 77.6%
  inhibition at 0.2 µM: 89.9%
[2]; Hepatitis B virus, HepDE19, read-out: Inhibitor B EC50
  EC50: 44.5 nM
[3]; [7]
  inhibition at 50 pM: -7.35%
  inhibition at 0.00012 µM: 23%
  inhibition at 0.00014 µM: 12.8%
  inhibition at 0.00037 µM: 7.04%
  inhibition at 0.00041 µM: 11.3%
  inhibition at 0.00123 µM: 11%
  inhibition at 0.00333 µM: 16.1%
  inhibition at 0.0037 µM: -6.72%
  inhibition at 0.01 µM: 6.38%
[3]; [8]
  EC50: > 100 nM
[3]; [9]
  EC50: > 100 nM
[3]; TAF 0.1234568 nM
  AVERAGE % INHIBITION: 29.82%
[3]; TAF 0.3703704 nM
  AVERAGE % INHIBITION: 10.78%
[3]; TAF 1.1111111 nM
  AVERAGE % INHIBITION: 20.81%
[3]; TAF 3.3333333 nM
  AVERAGE % INHIBITION: 9.06%
[3]; TAF 10 nM
  AVERAGE % INHIBITION: 7.97%
[4]; [10]
  inhibition at 50 pM: -8.77%
  inhibition at 0.00012 µM: 6.36%
  inhibition at 0.00037 µM: 11.6%
  inhibition at 0.00041 µM: 28.8%
  inhibition at 0.00123 µM: 63.4%
  inhibition at 0.00333 µM: 42.6%
  inhibition at 0.0037 µM: 78.3%
  inhibition at 0.01 µM: 43.3%
[4]; [8]
  EC50: 0.405 nM
[4]; [9]
  EC50: 0.405 nM
[4]; TAF 0.12 nM
  AVERAGE % INHIBITION: −2.6%
[4]; TAF 0.37 nM
  AVERAGE % INHIBITION: −1.92%
[4]; TAF 3.33 nM
  AVERAGE % INHIBITION: 40.16%
[4]; TAF 10.00 nM
  AVERAGE % INHIBITION: 50.21%
[4]; TAF […]
  AVERAGE % INHIBITION: 4.95%
[5]; [9]
  EC50: > 100 nM
[5]; TAF 0.05 nM, COMPOUND 3 0.00 nM
  AVERAGE % INHIBITION: 1.17%
[5]; TAF 0.12 nM, COMPOUND 22 0 nM
  AVERAGE % INHIBITION: 26.61%
[5]; TAF 0.14 nM, COMPOUND 3 0.00 nM
  AVERAGE % INHIBITION: −2.78%
[5]; TAF 0.37 nM, COMPOUND 22 0 nM
  AVERAGE % INHIBITION: 9.9%
[5]; TAF 0.41 nM, COMPOUND 3 0.00 nM
  AVERAGE % INHIBITION: 1.76%
[5]; TAF 1.23 nM, COMPOUND 3 0.00 nM
  AVERAGE % INHIBITION: 9.91%
[5]; TAF 3.33 nM, COMPOUND 22 0 nM
  AVERAGE % INHIBITION: 19.69%
[5]; TAF 3.70 nM, COMPOUND 3 0.00 nM
  AVERAGE % INHIBITION: 11.87%
[5]; TAF 10.00 nM, COMPOUND 22 0 nM
  AVERAGE % INHIBITION: 22.85%
[5]; TAF […], COMPOUND 22 0 nM
  AVERAGE % INHIBITION: 22.56%
